Read-outs that look alike come from different tables or passages of the source.
How the values were obtained:
[1] = test system: hepatic colonic carcinoma; assay: Tumor weight in rats bearing transplanted hepatic colonic carcinoma; assay type: in vivo, rat; settings: Day 17 after transplantation; 30 mg/kg each; average of 3 rats; control 5.84
Description: (§1) The present inventors have considerable experience with this model, and the antitumor effects of 5-FU shown are typical results, as are the TS and folate assays of control and 5-FU-only-treated rats. […] In fact, the "free TS" levels in the (6R,S)-FH4 -only-treated rats were the lowest of all arms of the study.
>94% by HPLC). The (6 R,S)FH 4 was weighed, dissolved in normal
saline, and injected daily by tail vein administration using the airfree
Protector device to prevent oxidative destruction of the folate.
(§2) ^b Inoculation of 1 × 10^6 viable colon tumor
(§3) (nitrosoguanidineinduced) cells under the liver capsule on Day 1 (Carlsso
(§4) et al., Anticancer Res. 10:813-16 (1990)). Animals sacrificed on Day 17
(§5) for excision of single liver tumor nodules for pharmacodynamic studies.

TS = TS assay in liver tumors of rats bearing transplanted hepatic colonic carcinoma; assay type: in vivo, rat; settings: 30 mg/kg each; 24 h after last injection; control 18.96
Description: as §1, §2, §3, §4, §5
(§6) ^d Assays done as described (Spears et al. Adv. Exp. Med. Biol.

[2] = biological target: T1, thymidylate synthase (TS) (Mus musculus, UniProt P07607); settings: murine colon cancer; cited from earlier work
T1 construct: [6-3H]FdUMP titration of free TS
T1 sequence (P07607 whole entry): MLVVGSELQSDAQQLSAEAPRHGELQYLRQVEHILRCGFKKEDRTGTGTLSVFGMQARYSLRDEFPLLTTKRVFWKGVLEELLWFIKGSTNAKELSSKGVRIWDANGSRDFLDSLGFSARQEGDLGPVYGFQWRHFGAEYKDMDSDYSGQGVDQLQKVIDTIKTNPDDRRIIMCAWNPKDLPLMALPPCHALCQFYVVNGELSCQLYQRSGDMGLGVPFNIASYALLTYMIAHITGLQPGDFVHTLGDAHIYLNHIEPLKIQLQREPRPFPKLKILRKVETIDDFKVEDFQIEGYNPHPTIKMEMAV

[3] = biological target: T1, thymidylate synthase (TS); assay: TS inhibition in murine colon carcinoma tumor CA51 (Tumor 51) after i.p. 5-FU with or without CH2 FH4; assay type: in vivo; settings: for Free TS / inhibition at 80 mg/kg: 5-FU 80 mg/kg i.p.; for Free TS: CH2 FH4 27 mg/kg in (6R), not corrected; for inhibition at 80 mg/kg: mouse, ip, baseline total TS 10.00 pmol/g
Procedure: (6R, S)-CH2 FH4 was prepared by the DEAE-cellulose column procedure, described above, using step-elution of the material as previously reported for purification of nucleotides (Moran et al., Proc. Natl. Aca. Sci. USA 76:1456-60 (1979)). […] Because of the high formaldehyde, this solution was over 2 mM in CH2 FH4, with less FH4 present as the solution isomer. After 20 min at room temperature, this solution was applied to a 1×3-cm DEAE-cellulose column; in the last step, the 500 mM NH4HCO3 (pH 8.0) fraction (30 mL) was pooled, lyophilized to dryness, and stored under vacuum in glass ampoules. This fraction contains both diastereomers of CH2 FH4.
On the day of reconstituting the above CH2 FH4, mice bearing subcutaneous murine colon carcinoma Tumor 51 were administered intraperitoneal (i.p.) 5-FU, with or without concomitant i.p. CH2 FH4 by separate injection. The 5-FU was given at a dose of 1.6 mg per mouse, about 80 mg/kg. The CH2 FH4 was given at a dose of 0.5 mL of the 2.4 mM material ([…]), above. The in vivo methodologies were essentially as had previously been described (C. P. Spears, et al., Cancer Res. 42:450-56 (1982)). […] The levels of apparent free TS in tumors of mice receiving CH2 FH4 concomitant with 5-FU were at, or below, that level due to exchange-labeling of endogenous TS-FdUMP-folate ternary complexes in the cytosolic extracts. […] This is exactly the qualitative difference between sensitivity and resistance to 5-FU previously established (see Spears et al., Cancer Res. 42:450-52 (1982)).

[4] = test system: 5,10-CH2 FH4 and FH4 levels in liver tumor; assay: Folate assay (5,10-CH2 FH4 and FH4) in liver tumors of rats; assay type: in vivo, rat; settings: 30 mg/kg each, 24 h after last injection
Description: as §1, §2, §3, §4, §5, §6

O=c1[nH]cc(F)c(=O)[nH]1 [5-FU, 5-Fluorouracil]
Tumor weight [1]: 1.03 g
TS (TS): 9.03 p mole/g
TS inhibition as therapeutic mechanism [2]: complete inhibition of TS
Free TS ([3]; 1 h): 1.67 pmol/g
Free TS ([3]; 3 h): 1.00 pmol/g
Free TS ([3]; 6 h): 1.27 pmol/g
TS inhibition, corrected ([3]; minimal correction factor of 5%, average / all tumors): 92%
inhibition at 80 mg/kg ([3]; read-out: % Inhibition (TS), 1 h): 83.3%
inhibition at 80 mg/kg ([3]; read-out: % Inhibition (TS), 3 h): 90%
inhibition at 80 mg/kg ([3]; read-out: % Inhibition (TS), 6 h): 87.3%
5,10-CH2 FH4 ([4]; control 0.69): 4.11 nmol/g
FH4 ([4]; control 1.18): 2.39 nmol/g
